# ChEMBL document CHEMBL1141033, “First-in-class pan caspase inhibitor developed for the treatment of liver disease” (J Med Chem, 2005)
# Columns and labels:
# Caspase-8 (Homo sapiens) = Caspase-8 (Homo sapiens) (UniProt Q14790); experiment: Inhibitory activity against Caspase-8
# Mus musculus [1] = experiment: Effective dose required for pancaspase inhibition in a-Fas liver upon i.p. administration; range = 0.02-0.11; conditions: ip
# Jurkat = experiment: Inhibitory concentration against JFas cells; format: functional, cell-based; conditions: Homo sapiens
# Caspase-6 (Homo sapiens) = biological target: T1, Caspase-6 (Homo sapiens) (UniProt P55212); experiment: Inhibitory activity against Caspase-6
# T1 sequence (whole entry): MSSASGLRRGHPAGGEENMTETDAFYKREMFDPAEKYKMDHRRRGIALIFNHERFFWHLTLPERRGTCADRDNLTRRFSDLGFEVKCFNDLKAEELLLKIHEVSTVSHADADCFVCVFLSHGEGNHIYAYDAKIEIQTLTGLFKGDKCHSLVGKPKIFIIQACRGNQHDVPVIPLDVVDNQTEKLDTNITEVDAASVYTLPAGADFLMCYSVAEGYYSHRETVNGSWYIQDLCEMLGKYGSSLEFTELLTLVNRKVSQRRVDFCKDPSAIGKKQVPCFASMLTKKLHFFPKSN
# Caspase-3 (Homo sapiens) = biological target: T2, Caspase-3 (Homo sapiens) (UniProt P42574); experiment: Inhibitory activity against Caspase-3
# T2 sequence (whole entry): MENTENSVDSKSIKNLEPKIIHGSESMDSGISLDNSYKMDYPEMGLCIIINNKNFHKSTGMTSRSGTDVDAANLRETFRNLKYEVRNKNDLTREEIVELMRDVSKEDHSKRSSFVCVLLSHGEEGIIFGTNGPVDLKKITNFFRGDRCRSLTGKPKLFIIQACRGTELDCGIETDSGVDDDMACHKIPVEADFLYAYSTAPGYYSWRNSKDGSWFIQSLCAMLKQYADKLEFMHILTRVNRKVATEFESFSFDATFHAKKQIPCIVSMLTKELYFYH
# THP-1 = experiment: Inhibitory concentration against THP-1 cells; format: functional, cell-based; conditions: Homo sapiens
# Caspase-1 (Mus musculus) = biological target: T3, Caspase-1 (Mus musculus) (UniProt P29452); experiment: Inhibitory activity against murine Caspase-1
# T3 sequence (whole entry): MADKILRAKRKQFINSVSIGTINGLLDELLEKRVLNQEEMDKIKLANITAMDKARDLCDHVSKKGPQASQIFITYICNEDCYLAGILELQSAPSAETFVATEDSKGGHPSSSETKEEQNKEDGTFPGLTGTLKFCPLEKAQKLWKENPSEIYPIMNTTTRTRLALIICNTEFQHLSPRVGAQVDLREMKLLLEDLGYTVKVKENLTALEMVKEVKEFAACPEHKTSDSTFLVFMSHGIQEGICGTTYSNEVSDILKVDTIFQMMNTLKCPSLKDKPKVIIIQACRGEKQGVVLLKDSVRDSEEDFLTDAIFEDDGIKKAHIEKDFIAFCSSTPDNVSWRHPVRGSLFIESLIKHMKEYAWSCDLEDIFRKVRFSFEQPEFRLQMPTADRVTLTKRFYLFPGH
# Rattus norvegicus [2] = experiment: Effective dose required for pancaspase inhibition in a-Fas liver after an i.p. administration; format: functional; conditions: ip
# Mus musculus [3] = experiment: Effective dose required for pancaspase inhibition in a-Fas liver upon i.p. administration; range = 0.02-0.16; conditions: ip
# Mus musculus [4] = experiment: Effective dose required for pancaspase inhibition in a-Fas liver upon i.p. administration; conditions: ip
# Mus musculus [5] = experiment: Effective dose required for pancaspase inhibition in a-Fas liver upon i.p. administration; range = 0.06-0.12; conditions: ip
# Rattus norvegicus [6] = experiment: Effective dose required for pancaspase inhibition in a-Fas liver upon i.p. administration; range = 0.03-0.05; format: functional; conditions: ip
# Caspase-8 (Homo sapiens), sequence (Q14790 217-374 limits assumed): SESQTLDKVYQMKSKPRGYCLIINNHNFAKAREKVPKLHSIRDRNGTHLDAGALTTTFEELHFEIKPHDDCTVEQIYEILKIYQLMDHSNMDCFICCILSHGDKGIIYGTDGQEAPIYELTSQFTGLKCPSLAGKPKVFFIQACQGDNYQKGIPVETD
# Caspase-8 (Homo sapiens), sequence (Q14790 385-479 limits assumed): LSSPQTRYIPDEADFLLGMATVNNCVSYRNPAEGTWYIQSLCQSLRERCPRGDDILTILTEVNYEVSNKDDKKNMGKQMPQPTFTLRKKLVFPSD
SMILES,k3/Ki (Caspase-8 (Homo sapiens)),ED50 (Mus musculus [1]),IC50 (Jurkat),k3/Ki (Caspase-6 (Homo sapiens)),k3/Ki (Caspase-3 (Homo sapiens)),IC50 (THP-1),k3/Ki (Caspase-1 (Mus musculus)),ED50 (Rattus norvegicus [2]),ED50 (Mus musculus [3]),ED50 (Mus musculus [4]),ED50 (Mus musculus [5]),ED50 (Rattus norvegicus [6])
C[C@H](NC(=O)C(=O)Nc1cc(C(C)(C)C)ccc1C(C)(C)C)C(=O)N[C@@H](CC(=O)O)C(=O)COc1c(F)c(F)cc(F)c1F,365000 M⁻¹ s⁻¹,0.05 mg/kg,62 nM,15400 M⁻¹ s⁻¹,38200 M⁻¹ s⁻¹,1840 nM,1.63e+07 M⁻¹ s⁻¹,–,–,–,–,–
C[C@H](NC(=O)C(=O)Nc1ccccc1-c1ccccc1)C(=O)N[C@@H](CC(=O)O)C(=O)COP(=O)(c1ccccc1)c1ccccc1,1.57e+06 M⁻¹ s⁻¹,–,3940 nM,22700 M⁻¹ s⁻¹,28400 M⁻¹ s⁻¹,4120 nM,5e+06 M⁻¹ s⁻¹,0.44 mg/kg,–,–,–,–
C[C@H](NC(=O)C(=O)Nc1ccccc1Oc1ccccc1)C(=O)N[C@@H](CC(=O)O)C(=O)COc1c(F)c(F)cc(F)c1F,154000 M⁻¹ s⁻¹,–,530 nM,5900 M⁻¹ s⁻¹,51000 M⁻¹ s⁻¹,800 nM,960000 M⁻¹ s⁻¹,–,–,–,–,–
C[C@H](NC(=O)C(=O)Nc1ccccc1-c1ccccc1)C(=O)N[C@@H](CC(=O)O)C(=O)COC(=O)c1c(Cl)cccc1Cl,342000 M⁻¹ s⁻¹,–,390 nM,61000 M⁻¹ s⁻¹,29000 M⁻¹ s⁻¹,4360 nM,7.28e+06 M⁻¹ s⁻¹,–,–,–,–,–
C[C@H](NC(=O)C(=O)Nc1ccccc1Cl)C(=O)N[C@@H](CC(=O)O)C(=O)COC(=O)c1c(Cl)cccc1Cl,109 M⁻¹ s⁻¹,–,1170 nM,44000 M⁻¹ s⁻¹,256000 M⁻¹ s⁻¹,320 nM,8.31e+06 M⁻¹ s⁻¹,–,–,–,–,–
C[C@H](NC(=O)C(=O)Nc1ccccc1Br)C(=O)N[C@@H](CC(=O)O)C(=O)COc1c(F)c(F)cc(F)c1F,542000 M⁻¹ s⁻¹,–,75 nM,25200 M⁻¹ s⁻¹,186000 M⁻¹ s⁻¹,50 nM,1.34e+06 M⁻¹ s⁻¹,–,–,–,–,–
Cc1c(C(=O)N[C@H](C(=O)NC(CC(=O)O)C(=O)CF)C(C)C)n(C)c2ccccc12 (stereo partly drawn),34400 M⁻¹ s⁻¹,–,1300 nM,98000 M⁻¹ s⁻¹,19000 M⁻¹ s⁻¹,10000 nM,10100 M⁻¹ s⁻¹,–,–,–,–,–
C[C@H](NC(=O)C(=O)Nc1ccccc1)C(=O)N[C@@H](CC(=O)O)C(=O)COc1c(F)c(F)cc(F)c1F,65300 M⁻¹ s⁻¹,–,670 nM,31700 M⁻¹ s⁻¹,25400 M⁻¹ s⁻¹,140 nM,127000 M⁻¹ s⁻¹,–,–,–,–,–
C[C@H](NC(=O)C(=O)NC1CCCCC1)C(=O)N[C@@H](CC(=O)O)C(=O)COc1c(F)c(F)cc(F)c1F,2800 M⁻¹ s⁻¹,–,150 nM,268 M⁻¹ s⁻¹,21000 M⁻¹ s⁻¹,500 nM,390000 M⁻¹ s⁻¹,–,–,–,–,–
C[C@H](NC(=O)C(=O)Nc1ccccc1-c1ccc[nH]1)C(=O)N[C@@H](CC(=O)O)C(=O)COc1c(F)c(F)cc(F)c1F,1.2e+06 M⁻¹ s⁻¹,–,56 nM,7750 M⁻¹ s⁻¹,12000 M⁻¹ s⁻¹,> 32000 nM,1.52e+06 M⁻¹ s⁻¹,–,–,–,–,–
C[C@H](NC(=O)C(=O)Nc1cc(C(C)(C)C)ccc1C(C)(C)C)C(=O)N[C@@H](CC(=O)O)C(=O)COC(=O)c1c(Cl)cccc1Cl,68 M⁻¹ s⁻¹,–,1380 nM,6400 M⁻¹ s⁻¹,30000 M⁻¹ s⁻¹,3130 nM,4.02e+06 M⁻¹ s⁻¹,–,–,–,–,–
C[C@H](NC(=O)C(=O)Nc1ccccc1Cl)C(=O)N[C@@H](CC(=O)O)C(=O)COc1c(F)c(F)cc(F)c1F,228000 M⁻¹ s⁻¹,–,64 nM,26000 M⁻¹ s⁻¹,219000 M⁻¹ s⁻¹,540 nM,1.34e+07 M⁻¹ s⁻¹,–,0.05 mg/kg,–,–,–
C[C@H](NC(=O)C(=O)Nc1cccc2ccccc12)C(=O)N[C@@H](CC(=O)O)C(=O)COc1c(F)c(F)cc(F)c1F,460000 M⁻¹ s⁻¹,–,86 nM,18500 M⁻¹ s⁻¹,57000 M⁻¹ s⁻¹,60 nM,1.7e+06 M⁻¹ s⁻¹,–,–,–,–,–
C[C@H](NC(=O)C(=O)NCc1ccccc1)C(=O)N[C@@H](CC(=O)O)C(=O)COc1c(F)c(F)cc(F)c1F,32500 M⁻¹ s⁻¹,–,300 nM,37100 M⁻¹ s⁻¹,35500 M⁻¹ s⁻¹,160 nM,674000 M⁻¹ s⁻¹,–,–,–,–,–
C[C@H](NC(=O)C(=O)Nc1ccccc1Cc1ccccc1)C(=O)N[C@@H](CC(=O)O)C(=O)COc1c(F)c(F)cc(F)c1F,617000 M⁻¹ s⁻¹,–,10 nM,33600 M⁻¹ s⁻¹,44400 M⁻¹ s⁻¹,540 nM,1.97e+06 M⁻¹ s⁻¹,–,–,–,–,–
C[C@H](NC(=O)C(=O)Nc1cc(C(C)(C)C)ccc1C(C)(C)C)C(=O)N[C@@H](CC(=O)O)C(=O)COP(=O)(c1ccccc1)c1ccccc1,970000 M⁻¹ s⁻¹,–,109 nM,7640 M⁻¹ s⁻¹,18300 M⁻¹ s⁻¹,5870 nM,2.71e+06 M⁻¹ s⁻¹,–,–,0.5 mg/kg,–,–
C[C@H](NC(=O)C(=O)Nc1ccccc1C(F)(F)F)C(=O)N[C@@H](CC(=O)O)C(=O)COc1c(F)c(F)cc(F)c1F,332000 M⁻¹ s⁻¹,–,61 nM,45600 M⁻¹ s⁻¹,309000 M⁻¹ s⁻¹,190 nM,9.95e+06 M⁻¹ s⁻¹,–,–,–,–,–
C[C@H](NC(=O)C(=O)Nc1ccccc1C(C)(C)C)C(=O)N[C@@H](CC(=O)O)C(=O)COP(=O)(c1ccccc1)c1ccccc1,2.01e+06 M⁻¹ s⁻¹,–,81 nM,52100 M⁻¹ s⁻¹,99100 M⁻¹ s⁻¹,9090 nM,2.16e+06 M⁻¹ s⁻¹,–,–,0.14 mg/kg,–,–
C[C@H](NC(=O)C(=O)Nc1ccccn1)C(=O)N[C@@H](CC(=O)O)C(=O)COc1c(F)c(F)cc(F)c1F,201000 M⁻¹ s⁻¹,–,1040 nM,23700 M⁻¹ s⁻¹,44000 M⁻¹ s⁻¹,200 nM,468000 M⁻¹ s⁻¹,–,–,–,–,–
C[C@H](NC(=O)C(=O)Nc1ccccc1C(C)(C)C)C(=O)N[C@@H](CC(=O)O)C(=O)COC(=O)c1c(Cl)cccc1Cl,4300 M⁻¹ s⁻¹,–,143 nM,105000 M⁻¹ s⁻¹,236000 M⁻¹ s⁻¹,11800 nM,8.33e+06 M⁻¹ s⁻¹,–,–,45.8 mg/kg,–,–
C[C@H](NC(=O)C(=O)Nc1ccccc1F)C(=O)N[C@@H](CC(=O)O)C(=O)COc1c(F)c(F)cc(F)c1F,114000 M⁻¹ s⁻¹,–,160 nM,19800 M⁻¹ s⁻¹,70000 M⁻¹ s⁻¹,160 nM,1.14e+06 M⁻¹ s⁻¹,–,–,–,–,–
O=C(O)CC(NC(=O)[C@@H]1Cc2cccc3c2N1C(=O)[C@@H](NC(=O)OCc1ccccc1)CC3)C(=O)CF (stereo partly drawn),98000 M⁻¹ s⁻¹,–,510 nM,25000 M⁻¹ s⁻¹,960000 M⁻¹ s⁻¹,300 nM,1.2e+07 M⁻¹ s⁻¹,–,–,–,–,–
C[C@H](NC(=O)C(=O)Nc1ccc2c(c1)CCC2)C(=O)N[C@@H](CC(=O)O)C(=O)COc1c(F)c(F)cc(F)c1F,204000 M⁻¹ s⁻¹,–,200 nM,31900 M⁻¹ s⁻¹,42000 M⁻¹ s⁻¹,120 nM,270000 M⁻¹ s⁻¹,–,–,–,–,–
C[C@H](NC(=O)C(=O)Nc1ccccc1C(C)(C)C)C(=O)N[C@@H](CC(=O)O)C(=O)COc1c(F)c(F)cc(F)c1F [EMRICASAN],2.94e+06 M⁻¹ s⁻¹,–,25 nM,58700 M⁻¹ s⁻¹,75700 M⁻¹ s⁻¹,270 nM,689000 M⁻¹ s⁻¹,–,–,–,0.08 mg/kg,–
C[C@H](NC(=O)C(=O)Nc1ccccc1Cl)C(=O)N[C@@H](CC(=O)O)C(=O)COP(=O)(c1ccccc1)c1ccccc1,1.41e+06 M⁻¹ s⁻¹,–,68 nM,37100 M⁻¹ s⁻¹,211000 M⁻¹ s⁻¹,1040 nM,3.96e+06 M⁻¹ s⁻¹,–,–,–,–,0.04 mg/kg
